How the values were obtained:
Type in all cases: cell-based
[1] = target: KDR (Homo sapiens (Human), UniProt P35968); assay: KDR autophosphorylation ELISA in HUVEC cells; details: cellular, VEGF165-stimulated, phospho-KDR ELISA
Method in brief: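 HUVEC, 24 h serum-free starvation; cpd 8-pt dilution, 0.3% DMSO final, 1 h; VEGF165 100 ng/mL, 5 min; cold lysis; phospho-KDR ELISA; IC50, 4PL.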

[2] = target: Met (Homo sapiens (Human), UniProt P08581); assay: Met autophosphorylation ELISA in PC-3 cells; details: cellular, HGF-stimulated, phospho-Met ELISA, read-out: c-Met IC50
Method in brief: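 PC-3 cells serum-starved 3 h were treated 1 h with an 8-point compound series (0.3% DMSO), then stimulated 10 min with 100 ng/mL human HGF. Phospho-Met (panTyr) in lysates was measured by sandwich ELISA against DMSO (100%) and reference-inhibitor (0%) controls, and IC50 came from a 4-parameter logistic fit.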

[3] = target: AXL (Homo sapiens (Human), UniProt P30530); assay: AXL autophosphorylation ELISA in A-172 cells; details: cellular, Gas6-stimulated, phospho-AXL ELISA
Method in brief: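 A-172 glioblastoma cells, serum-starved 24 h, took compounds for 1 h (8-point curve, 0.3% DMSO) before 15 min stimulation with 1 μg/mL recombinant human Gas6. Lysate phospho-AXL measured by ELISA against a phospho-AXL standard, normalized to DMSO (100%) and reference inhibitor (0%); IC50 from 4-parameter logistic fit.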

Sequence of Met (P08581 25-1390): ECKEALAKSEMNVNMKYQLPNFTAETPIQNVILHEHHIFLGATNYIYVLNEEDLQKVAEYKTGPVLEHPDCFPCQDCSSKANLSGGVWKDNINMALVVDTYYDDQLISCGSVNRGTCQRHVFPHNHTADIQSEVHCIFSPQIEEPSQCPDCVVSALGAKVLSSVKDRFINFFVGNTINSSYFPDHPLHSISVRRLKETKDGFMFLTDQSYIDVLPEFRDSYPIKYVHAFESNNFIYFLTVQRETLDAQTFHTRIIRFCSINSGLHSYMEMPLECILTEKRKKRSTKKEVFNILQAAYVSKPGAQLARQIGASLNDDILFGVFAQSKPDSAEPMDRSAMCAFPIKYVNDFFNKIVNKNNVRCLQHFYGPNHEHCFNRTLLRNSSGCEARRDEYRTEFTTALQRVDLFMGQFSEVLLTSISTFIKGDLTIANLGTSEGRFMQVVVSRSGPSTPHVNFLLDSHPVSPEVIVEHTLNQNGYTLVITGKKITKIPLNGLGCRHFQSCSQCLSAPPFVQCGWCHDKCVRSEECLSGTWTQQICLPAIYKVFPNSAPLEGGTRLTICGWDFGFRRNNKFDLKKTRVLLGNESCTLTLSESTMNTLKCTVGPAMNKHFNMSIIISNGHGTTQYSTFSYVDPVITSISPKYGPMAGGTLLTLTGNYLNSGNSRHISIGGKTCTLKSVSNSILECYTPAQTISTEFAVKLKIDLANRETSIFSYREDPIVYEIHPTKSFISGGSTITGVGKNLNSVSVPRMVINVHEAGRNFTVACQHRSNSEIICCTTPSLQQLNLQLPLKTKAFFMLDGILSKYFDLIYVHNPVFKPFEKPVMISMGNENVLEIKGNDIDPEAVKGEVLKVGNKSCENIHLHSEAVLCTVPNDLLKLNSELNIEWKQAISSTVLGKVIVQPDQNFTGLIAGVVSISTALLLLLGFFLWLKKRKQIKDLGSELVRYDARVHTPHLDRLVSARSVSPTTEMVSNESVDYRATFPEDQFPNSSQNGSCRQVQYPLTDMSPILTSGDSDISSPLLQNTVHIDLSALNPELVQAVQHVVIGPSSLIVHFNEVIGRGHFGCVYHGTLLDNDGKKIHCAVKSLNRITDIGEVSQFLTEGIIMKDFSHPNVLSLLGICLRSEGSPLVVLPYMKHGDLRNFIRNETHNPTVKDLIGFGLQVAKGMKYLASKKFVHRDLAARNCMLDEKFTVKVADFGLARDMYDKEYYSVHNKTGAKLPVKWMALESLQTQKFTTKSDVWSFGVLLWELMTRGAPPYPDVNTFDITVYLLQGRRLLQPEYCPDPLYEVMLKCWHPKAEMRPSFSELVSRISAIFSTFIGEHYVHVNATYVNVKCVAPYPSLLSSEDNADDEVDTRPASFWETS
Sequence of AXL (P30530 26-894): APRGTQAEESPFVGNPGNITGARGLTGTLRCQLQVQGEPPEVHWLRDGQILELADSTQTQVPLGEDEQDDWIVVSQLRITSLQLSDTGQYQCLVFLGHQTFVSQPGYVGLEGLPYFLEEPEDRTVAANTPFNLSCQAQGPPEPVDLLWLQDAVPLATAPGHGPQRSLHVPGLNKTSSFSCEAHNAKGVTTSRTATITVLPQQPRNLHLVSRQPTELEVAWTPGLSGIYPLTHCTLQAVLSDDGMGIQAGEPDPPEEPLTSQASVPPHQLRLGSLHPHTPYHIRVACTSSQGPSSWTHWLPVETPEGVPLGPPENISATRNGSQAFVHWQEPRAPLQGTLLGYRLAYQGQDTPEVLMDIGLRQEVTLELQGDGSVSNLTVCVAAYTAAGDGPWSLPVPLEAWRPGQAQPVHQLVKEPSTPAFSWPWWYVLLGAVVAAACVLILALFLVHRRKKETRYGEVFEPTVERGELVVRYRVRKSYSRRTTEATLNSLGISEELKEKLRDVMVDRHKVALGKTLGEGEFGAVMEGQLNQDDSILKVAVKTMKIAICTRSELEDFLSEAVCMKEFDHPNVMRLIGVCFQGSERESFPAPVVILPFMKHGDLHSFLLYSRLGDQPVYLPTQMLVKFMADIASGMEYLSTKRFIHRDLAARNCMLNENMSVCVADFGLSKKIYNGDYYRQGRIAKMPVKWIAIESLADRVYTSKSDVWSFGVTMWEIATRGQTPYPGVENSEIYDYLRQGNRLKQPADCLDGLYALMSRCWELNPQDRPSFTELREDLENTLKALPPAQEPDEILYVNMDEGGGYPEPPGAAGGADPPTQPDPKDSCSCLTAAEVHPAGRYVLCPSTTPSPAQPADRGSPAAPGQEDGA
Sequence of KDR (P35968 20-1356): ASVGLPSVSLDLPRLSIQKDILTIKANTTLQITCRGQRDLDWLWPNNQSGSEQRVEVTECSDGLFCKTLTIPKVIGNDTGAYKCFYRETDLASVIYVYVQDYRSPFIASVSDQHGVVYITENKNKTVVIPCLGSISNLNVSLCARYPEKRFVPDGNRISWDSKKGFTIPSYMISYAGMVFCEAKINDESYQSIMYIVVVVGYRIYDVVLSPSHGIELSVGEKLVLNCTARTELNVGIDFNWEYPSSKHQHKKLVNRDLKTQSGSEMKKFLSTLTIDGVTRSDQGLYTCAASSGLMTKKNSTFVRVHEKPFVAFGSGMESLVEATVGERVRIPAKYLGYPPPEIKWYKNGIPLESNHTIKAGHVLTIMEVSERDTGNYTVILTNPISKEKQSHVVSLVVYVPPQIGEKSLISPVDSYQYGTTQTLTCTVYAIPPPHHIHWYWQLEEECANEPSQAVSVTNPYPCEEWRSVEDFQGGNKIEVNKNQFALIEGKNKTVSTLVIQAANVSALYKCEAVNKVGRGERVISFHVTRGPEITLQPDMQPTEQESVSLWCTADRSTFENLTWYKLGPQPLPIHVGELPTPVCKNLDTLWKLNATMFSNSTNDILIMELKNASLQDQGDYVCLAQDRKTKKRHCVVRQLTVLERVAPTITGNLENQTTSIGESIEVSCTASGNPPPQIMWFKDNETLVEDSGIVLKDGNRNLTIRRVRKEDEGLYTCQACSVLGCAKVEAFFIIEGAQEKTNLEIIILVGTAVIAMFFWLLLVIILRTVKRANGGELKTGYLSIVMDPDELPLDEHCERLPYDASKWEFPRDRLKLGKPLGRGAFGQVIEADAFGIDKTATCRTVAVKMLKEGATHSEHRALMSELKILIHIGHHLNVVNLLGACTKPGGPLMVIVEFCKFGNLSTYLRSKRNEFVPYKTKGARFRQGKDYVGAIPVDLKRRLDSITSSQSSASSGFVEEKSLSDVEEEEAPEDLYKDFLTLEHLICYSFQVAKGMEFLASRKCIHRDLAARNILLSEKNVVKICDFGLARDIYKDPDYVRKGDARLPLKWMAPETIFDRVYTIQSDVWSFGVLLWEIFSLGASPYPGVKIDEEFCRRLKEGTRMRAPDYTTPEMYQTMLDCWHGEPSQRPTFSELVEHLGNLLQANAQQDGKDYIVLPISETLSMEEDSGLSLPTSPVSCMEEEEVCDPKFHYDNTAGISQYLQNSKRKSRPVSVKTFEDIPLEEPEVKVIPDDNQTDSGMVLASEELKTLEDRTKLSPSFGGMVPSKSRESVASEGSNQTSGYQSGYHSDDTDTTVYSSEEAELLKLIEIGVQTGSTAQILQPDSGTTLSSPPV

| SMILES | IC50 [1] [nM] | IC50 [2] [nM] | IC50 [3] [nM] |
| --- | --- | --- | --- |
| COC(=O)c1cc2c(Oc3ccc(NC(=O)C4(C(=O)Nc5ccc(F)cc5)CC4)cn3)ccnc2cc1OC [Compound 10, Methyl 4-[5-[[1-[(4-fluorophenyl)carbamoyl]cyclopropanecarbonyl]-amino]pyridin-2-yl]oxy-7-methoxyquinoline-6-carboxylate] | 10 to 100 | 100 to 300 | 10 to 100 |
| COc1cc2nccc(Oc3ccc(NC(=O)C4(C(=O)Nc5ccc(F)cc5)CC4)cn3)c2cc1C(N)=O [Compound 16, 1-N′-[6-(6-Carbamoyl-7-methoxyquinolin-4-yl)oxypyridin-3-yl]-1-N-(4-fluorophenyl)-cyclopropane-1,1-dicarboxamide] | 10 to 100 | 100 to 300 | 10 to 100 |
| CNC(=O)c1cc2c(Oc3ccc(NC(=O)C4(C(=O)Nc5ccc(F)cc5)CC4)cn3)ccnc2cc1OC [Compound 17, 1-N-(4-Fluorophenyl)-1-N′-[6-[7-methoxy-6-(methylcarbamoyl)quinolin-4-yl]oxypyridin-3-yl]cyclopropane-1,1-dicarboxamide] | 10 to 100 | 100 to 300 | 10 to 100 |
| COC(=O)c1cc2c(Oc3ncc(NC(=O)C4(C(=O)Nc5ccc(F)cc5)CC4)cc3Cl)ccnc2cc1OC [Compound 11, Methyl 4-[3-chloro-5-[[1-[(4-fluorophenyl)carbamoyl]cyclopropanecarbonyl]-amino]pyridin-2-yl]oxy-7-methoxyquinoline-6-carboxylate] | > 300 | 10 to 100 | 10 to 100 |

Other lines, results leading:

| IC50 [1] [nM] | IC50 [2] [nM] | IC50 [3] [nM] | SMILES |
| --- | --- | --- | --- |
| > 300 | 100 to 300 | 100 to 300 | COc1cc2nccc(Oc3ccc(NC(=O)C4(C(=O)Nc5ccc(F)cc5)CC4)cn3)c2nc1OC [Compound 81, 1-N′-[6-[(6,7-Dimethoxy-1,5-naphthyridin-4-yl)oxy]pyridin-3-yl]-1-N-(4-fluorophenyl)cyclopropane-1,1-dicarboxamide] |
| > 300 | 10 to 100 | 100 to 300 | COc1cc2nccc(Oc3ncc(NC(=O)C4(C(=O)Nc5ccc(F)cc5)CC4)cc3Cl)c2nc1OC [Compound 80, 1-N′-[5-Chloro-6-[(6,7-dimethoxy-1,5-naphthyridin-4-yl)oxy]pyridin-3-yl]-1-N-(4-fluorophenyl)cyclopropane-1,1-dicarboxamide] |
| > 300 | 10 to 100 | 10 to 100 | COc1cc2nccc(Oc3ncc(NC(=O)C4(C(=O)Nc5ccc(F)cc5)CC4)cc3F)c2nc1OC [Compound 82, 1-N′-[6-[(6,7-Dimethoxy-1,5-naphthyridin-4-yl)oxy]-5-fluoropyridin-3-yl]-1-N-(4-fluorophenyl)cyclopropane-1,1-dicarboxamide] |
| > 300 | 10 to 100 | ≤ 10 | COc1cc2nccc(Oc3ncc(NC(=O)C4(C(=O)Nc5ccc(F)cc5)CC4)cc3Cl)c2cc1C(N)=O [Compound 18, 1-N′-[6-(6-Carbamoyl-7-methoxyquinolin-4-yl)oxy-5-chloropyridin-3-yl]-1-N-(4-fluorophenyl)cyclopropane-1,1-dicarboxamide] |
| 100 to 300 | 10 to 100 | 10 to 100 | COc1cc2nccc(Oc3ccc(NC(=O)C4(C(=O)Nc5ccc(F)cc5)CC4)cn3)c2cc1-c1cn[nH]c1 [Compound 60, 1-N-(4-Fluorophenyl)-1-N′-[6-[7-methoxy-6-(1H-pyrazol-4-yl)quinolin-4-yl]oxypyridin-3-yl]cyclopropane-1,1-dicarboxamide] |

— patent publication US11673897B2, “Compounds for the treatment of kinase-dependent disorders” (Exelixis, Inc., priority 2018, dated 2023)
